The record followed here is ChEMBL document CHEMBL2331376, “Ridaifen B, a tamoxifen derivative, directly binds to Grb10 interacting GYF protein 2” (Bioorg Med Chem, 2013).

The source made the active and inactive calls. The calls are words filed in the database; no cut-off is given here.

The target of test [1] is T1, GRB10-interacting GYF protein 2 (Homo sapiens) (UniProt Q6Y7W6).
T1 sequence (whole entry): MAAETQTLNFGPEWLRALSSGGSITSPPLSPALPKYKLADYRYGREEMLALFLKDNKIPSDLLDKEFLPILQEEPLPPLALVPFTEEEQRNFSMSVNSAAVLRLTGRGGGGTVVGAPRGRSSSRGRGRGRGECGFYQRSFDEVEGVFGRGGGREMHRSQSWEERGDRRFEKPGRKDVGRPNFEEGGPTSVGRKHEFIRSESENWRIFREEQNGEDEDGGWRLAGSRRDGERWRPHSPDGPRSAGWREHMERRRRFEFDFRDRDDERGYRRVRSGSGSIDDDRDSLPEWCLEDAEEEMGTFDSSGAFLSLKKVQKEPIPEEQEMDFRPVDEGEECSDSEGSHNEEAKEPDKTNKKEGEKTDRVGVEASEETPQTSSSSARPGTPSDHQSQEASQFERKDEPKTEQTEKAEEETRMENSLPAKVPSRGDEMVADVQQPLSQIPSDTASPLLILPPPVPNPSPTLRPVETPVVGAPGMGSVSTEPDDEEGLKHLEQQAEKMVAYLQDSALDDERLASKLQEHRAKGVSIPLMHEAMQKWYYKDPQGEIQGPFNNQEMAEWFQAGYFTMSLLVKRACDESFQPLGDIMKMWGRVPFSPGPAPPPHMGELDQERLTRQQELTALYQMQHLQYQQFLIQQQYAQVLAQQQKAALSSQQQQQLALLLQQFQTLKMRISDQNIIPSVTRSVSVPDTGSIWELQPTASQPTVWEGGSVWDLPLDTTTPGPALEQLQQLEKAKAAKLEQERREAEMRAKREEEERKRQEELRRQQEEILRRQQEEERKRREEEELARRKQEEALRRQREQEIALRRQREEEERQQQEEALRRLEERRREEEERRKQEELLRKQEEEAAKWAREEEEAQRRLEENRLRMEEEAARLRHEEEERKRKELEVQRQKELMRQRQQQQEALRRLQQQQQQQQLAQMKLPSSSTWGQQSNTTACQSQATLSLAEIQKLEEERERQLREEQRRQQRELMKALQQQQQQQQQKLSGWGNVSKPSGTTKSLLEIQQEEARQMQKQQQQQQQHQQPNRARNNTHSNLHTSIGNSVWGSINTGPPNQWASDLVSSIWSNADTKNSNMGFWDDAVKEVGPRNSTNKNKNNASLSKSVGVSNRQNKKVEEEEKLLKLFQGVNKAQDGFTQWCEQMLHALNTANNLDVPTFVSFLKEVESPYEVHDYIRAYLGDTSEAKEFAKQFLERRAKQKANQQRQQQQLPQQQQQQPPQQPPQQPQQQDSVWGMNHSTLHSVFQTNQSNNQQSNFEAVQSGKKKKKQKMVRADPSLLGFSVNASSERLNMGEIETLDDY
The test is described as follows: (§1) Binding affinity to recombinant His-tagged Grb10 interacting GYF protein 2 (745-1030 amino acids) (unknown origin) by surface plasmon resonance analysis. A general note: Surface plasmon resonance follows binding to a sensor surface in real time, without labels.

The target of test [2] is T2, GRB10-interacting GYF protein 2 (Homo sapiens, UniProt Q6Y7W6).
T2 sequence (Q6Y7W6 whole entry): T1 sequence (whole entry)
The test is described as §1.

The target of test [3] is T1, GRB10-interacting GYF protein 2 (Homo sapiens). The test can be described thus: Binding affinity to Flag-tagged Grb10 interacting GYF protein 2 (unknown origin) expressed in HEK293T cells by Western blotting method based pull-down assay. It is filed as cell-based. Particulars: HEK-293T.
Test [4] shares this target. The test is described as follows: Binding affinity to Grb10 interacting GYF protein 2 in human Jurkat cells using 10 uM compound immobilized on streptavidin-coated wells by T7 phase display screening method. It is filed as cell-based.

A word on the Kd: it is the equilibrium constant for the complex coming apart. As for `CCC(=C(c1ccc(OCCN2CCCC2)cc1)c1ccc(OCCN2CCCC2)cc1)c1cccc(OC(=O)CCCCCNC(=O)CCCC[C@@H]2SC[C@@H]3NC(=O)N[C@@H]32)c1`, the Activity result in test [1] is “Dose-dependent effect”. Further, in test [2], the Kd was determined as 186 nM. Moreover, the result in test [3] and in test [4] was Active.
As for `CCC(=C(c1ccc(OCCN2CCOCC2)cc1)c1ccc(OCCN2CCOCC2)cc1)c1cccc(OC(=O)CCCCCNC(=O)CCCC[C@@H]2SC[C@@H]3NC(=O)N[C@@H]32)c1`, the outcome in test [1], in test [3] and in test [4] was inactive.
